According to ChEMBL document CHEMBL1201862, “PubChem BioAssay data set” (2004):
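Results reflect a 48-hour exposure of cells in 96-well plates to compound at five concentrations. The concentration for 50% growth inhibition is given as GI50.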 Calls of active or inactive are those of the source. Cut-off read from the data, not from the text of the source: active = GI50 up to about 1.1 µM and inactive = higher.

How the values were obtained:
Experiment in all cases: NCI anticancer screen, dose series, 48 h
786-0 = test system: 786-0
COLO 205 = test system: COLO 205
HT-29 = test system: HT-29
KM12 = test system: KM12
LOX IMVI = test system: LOX IMVI
M14 = test system: M14
Malme-3M = test system: Malme-3M
NCI-H23 = test system: NCI-H23
RXF 393 = test system: RXF 393
SK-OV-3 = test system: SK-OV-3
SNB-75 = test system: SNB-75
SW-620 = test system: SW-620
TK-10 = test system: TK-10
UO-31 = test system: UO-31
OVCAR-5 = test system: OVCAR-5

Measured: GI50

CC(=O)O[C@]12CCCCCC1C1(O)C(O)CCC[C@H]12 (stereo not given in full)
inactive: 786-0 > 100 µM | COLO 205 > 100 µM | HT-29 > 100 µM | KM12 > 100 µM | LOX IMVI > 100 µM | M14 > 100 µM | Malme-3M > 100 µM | NCI-H23 > 100 µM | RXF 393 > 100 µM | SK-OV-3 > 100 µM | SNB-75 > 100 µM | SW-620 > 100 µM | TK-10 > 100 µM | UO-31 > 100 µM

O=C1CCC(c2ccccc2)C(O)(C(=O)O)C1 (stereo not given)
inactive: 786-0 > 100 µM | COLO 205 > 100 µM | HT-29 > 100 µM | KM12 > 100 µM | LOX IMVI > 100 µM | M14 > 100 µM | Malme-3M > 100 µM | NCI-H23 > 100 µM | OVCAR-5 > 100 µM | SK-OV-3 > 100 µM | SNB-75 > 100 µM | SW-620 > 100 µM | TK-10 > 100 µM | UO-31 > 100 µM

CC(=O)/C(=C\c1cccc([N+](=O)[O-])c1)C(=O)Nc1ccccc1C
inactive: 786-0 > 100 µM | HT-29 95.1 µM | KM12 > 100 µM | LOX IMVI 60.1 µM | M14 95.7 µM | Malme-3M > 100 µM | NCI-H23 > 100 µM | OVCAR-5 > 100 µM | RXF 393 > 100 µM | SK-OV-3 > 100 µM | SW-620 > 100 µM | TK-10 > 100 µM | UO-31 > 100 µM

C=CCC(C(=O)OC)C1(C(=O)OC)c2[nH]c3ccccc3c2CCN1Cc1ccccc1 (stereo not given)
inactive: 786-0 19 µM | COLO 205 > 100 µM | HT-29 > 100 µM | KM12 > 100 µM | M14 82.4 µM | Malme-3M 51.8 µM | NCI-H23 > 100 µM | OVCAR-5 > 100 µM | RXF 393 33 µM | SK-OV-3 89.9 µM | SNB-75 > 100 µM | SW-620 > 100 µM | TK-10 > 100 µM | UO-31 53.3 µM

CC1(C)C=N[N+]2(C)C3C=CC(CC3)C12 (stereo not given)
inactive: 786-0 > 100 µM | COLO 205 > 100 µM | HT-29 > 100 µM | KM12 > 100 µM | LOX IMVI > 100 µM | M14 > 100 µM | Malme-3M > 100 µM | NCI-H23 > 100 µM | OVCAR-5 > 100 µM | RXF 393 > 100 µM | SK-OV-3 > 100 µM | SNB-75 > 100 µM | TK-10 > 100 µM | UO-31 > 100 µM

C=CC1=C(C)c2cc3[nH]c(cc4nc(cc5[nH]c(cc1n2)c(C)c5CCC(=O)N(CC)CC)C(CCC(=O)N(CC)CC)=C4C)c(C)c3C=C
inactive: 786-0 > 100 µM | HT-29 > 100 µM | KM12 > 100 µM | LOX IMVI > 100 µM | M14 > 100 µM | Malme-3M > 100 µM | NCI-H23 > 100 µM | OVCAR-5 74.5 µM | RXF 393 75.9 µM | SK-OV-3 > 100 µM | SNB-75 29.4 µM | SW-620 > 100 µM | TK-10 > 100 µM | UO-31 > 100 µM

Cc1ccc(-c2cc(-c3ccco3)c(C#N)c(=O)n2C2OC(OC(=O)c3ccccc3)C(OC(=O)c3ccccc3)C2OC(=O)c2ccccc2)cc1 (stereo not given)
inactive: 786-0 81.3 µM | COLO 205 > 10 µM | HT-29 > 100 µM | KM12 > 100 µM | LOX IMVI > 100 µM | M14 64.4 µM | Malme-3M > 100 µM | OVCAR-5 > 100 µM | RXF 393 24.9 µM | SK-OV-3 > 100 µM | SNB-75 > 100 µM | SW-620 > 100 µM | TK-10 96.2 µM | UO-31 > 100 µM

CCC1(N=[N+]=[N-])C(=O)c2ccccc2N(C)C1=O (stereo not given)
inactive: 786-0 > 100 µM | COLO 205 > 100 µM | HT-29 > 100 µM | KM12 > 100 µM | LOX IMVI > 100 µM | M14 > 100 µM | Malme-3M > 100 µM | NCI-H23 > 100 µM | OVCAR-5 > 100 µM | SK-OV-3 > 100 µM | SNB-75 > 100 µM | SW-620 > 100 µM | TK-10 > 100 µM | UO-31 > 100 µM

O=C1NC(=O)C(C(=O)C(=O)Nc2ccc(Cl)cc2Cl)C(=O)N1
inactive: 786-0 > 100 µM | COLO 205 > 100 µM | KM12 93.1 µM | M14 > 100 µM | Malme-3M > 100 µM | OVCAR-5 > 100 µM | SK-OV-3 > 100 µM | SW-620 > 100 µM | TK-10 > 100 µM | UO-31 > 100 µM

O=C(O)CNc1cc(-c2ccccc2)nc(NCC(=O)O)n1
inactive: 786-0 > 100 µM | COLO 205 > 100 µM | HT-29 > 100 µM | KM12 > 100 µM | LOX IMVI > 100 µM | M14 > 100 µM | Malme-3M > 100 µM | NCI-H23 > 100 µM | OVCAR-5 > 100 µM | SK-OV-3 > 100 µM | SNB-75 > 100 µM | SW-620 > 100 µM | TK-10 > 100 µM | UO-31 > 100 µM
